Measurements published in US6511967B1, “Use of an internalizing transferrin receptor to image transgene expression” (The General Hospital Corporation, priority 1999, dated 2003).

What was measured:
[1] = tested on: Gli36EGFR cells
Protocol: Gli36EGFR cells were plated at approximately 10% confluency. Cells were infected the next day (MOI=5) with either one of three amplicons: EZ-TFR (FIG. 12), which was a control having a transferrin receptor gene, but lacking a p450 gene; EZ-p450 (FIG. 11), which was a second control with a p450 gene but no transferrin receptor gene; or PETZ (FIG. 8), which includes both the p450 and transferrin receptor genes. Following a 24 hour incubation with the viral amplicons, cyclophosphamide (CPA) was added in varying concentrations as indicated in the graph of FIG. 13. CPA is a chemotherapeutic compound that is metabolized by the expression product of the p450 gene (cyp2B1 in the rat). Cleavage of CPA yields an active metabolite, which is toxic to the cancer cells. Cell number was measured 72 hours later using a Coulter Counter. The data are presented in the graph in FIG. 13 as a percentage of control, where control cells are virally infected cells in the absence of CPA.

[2] = tested on: ETR+ and ETR− tumors; test: Biodistribution of labeled reporter complex in excised ETR+ and ETR− tumors; format: in vivo, nude mice
Protocol: A similar 4-fold difference was also observed when In labeled Tf was injected into these animals. The same assay can be used to analyze the biodistribution of other new reporter complexes.
First, rat 9L gliosarcoma cells (Brain Tumor Research Center, San Francisco, Calif.) were grown in Dulbecco's modified Eagle's medium (DMEM, Cellgro, Mediatech, Washington, D.C.) containing 10% fetal bovine serum (FBS, Cellgro).
Then, ETR− and ETR+ tumors were grown in nude mice by injecting […] cells of either cell line into the left and right flanks of animals (n=12). Each animal was implanted with both tumors in each flank so that it could serve as its own control. Animals were used for histology, MR, and/or biodistribution studies 10 to 14 days after tumor inoculation. The growth characteristics of the tumors were similar and by day 12 all animals had developed tumors 200-400 mg in size.

[3] = tested on: ETR+ and ETR− tumors; test: In vivo MR imaging of mice with ETR+ and ETR− tumors after intravenous Tf-MION; parameters: species or system nude mice; conditions: then tumoral signal intensity returned to baseline
Protocol: MR imaging was performed in live animals using a 1.5 T superconducting magnet (Signa 5.0; GE Medical Systems, Milwaukee, Wis.) using a 5-inch surface coil. […] Slice thickness was 3 mm. The field of view (FOV) was 10 cm^2, using a 256×256 imaging matrix and 2-4 acquisition averages. Signal intensity (SI) measurements were obtained in regions of interest (ROI) from tumor and background. To display MION-Tf induced changes, R2 maps of tumors calculated from spin echo images were superimposed on anatomic maps (T1 weighted images). Semiquantitation was done by calibrating R2 maps to known concentrations of radiolabeled superparagmagnetic probes.

[4] = tested on: Gli36#6; test: In vitro MR imaging of Gli36#6 cells infected with PETZ amplicon and incubated with Tf-MION (FIG. 10A); format: cell-based; conditions: 10 μg Tf-MION
Protocol: In this figure, concentration labels refer to the amount of iron molecules added to the sample. […] Following infection, the cells were allowed to recover and were washed, pelleted, and imaged at room temperature as follows: SE (Spin Echo): TR 3000 ms, multiecho with TE 25, 50, 75, 100ms. Slice thickness 1.9 mm, field of view 8 cm, matrix 256×256, 2 NEX, scan time 26:12 minutes.

[5] = tested on: Gli36EGFR cells; test: In vitro MR imaging of Gli36EGFR cells infected with PETZ amplicon and labeled with Tf-SPDP-CLIO (FIG. 10B); format: cell-based; conditions: MOI 20 or 4; 2 hours at 37° C.; especially at MOI of 20
Protocol: In another similar experiment, in vitro MR imaging was used to analyze viral transfer of the transferrin receptor and labeling with Tf-SPDP-CLIO. Gli36EGFR cells were uninfected or infected with an HSV-based amplicon (PETZ) driving expression of an altered form of the transferrin receptor (Multiplicity of Infection (MOI) of 20 or 4). After 24 hours, the cells were incubated with the indicated concentrations of Tf-SPDP-CLIO for 2 hours at 37° C. Following incubation, cells were harvested, washed, and pelleted for imaging at room temperature. As a control for non-specific uptake of unconjugated CLIO, infected and uninfected cells were also incubated in a similar fashion with 50 μg of CLIO alone. Concentration numbers along the top of the figure refer to the amount of iron added to the sample in the form of Tf-SPDP-CLIO. The ratio of Tf conjugated to CLIO for Tf-SPDP-CLIO was 4:1. […] The MR imaging conditions were as follows: SE (Spin Echo); TR 3000 ms, multiecho with TE 25, 50, 75, 100 ms. Slice thickness 1.9 mm, field of view 8 cm, matrix 256×256, 2 NEX, scan time 26:12 minutes.

[6] = tested on: Gli36EGFR tumors infected with PETZ; test: In vivo MR imaging of gene transfer in bilateral Gli36EGFR brain tumors (FIG. 9); parameters: species or system nude mice; conditions: 24 hours after tail-vein injection, 1 mg/kg; 3-D gradient echo
Source text: In another example of imaging of in vivo gene transfer, Gli36EGFR cells were implanted into nude mice 8 days prior to imaging to generate bilateral frontal tumors. On day 6 after implantation, tumors on the right were infected with the HSV-based amplicon PETZ (FIG. 8), which drives expression of an altered form of the TfR. Forty-eight hours after virus administration animals were imaged without contrast agent (T1-weighted pre-contrast scan; FIG. 9A) and then injected with Tf-SPDP-CLIO.
All contrast agents were injected by tail-vein administration (1 mg/kg Tf-SPDP-CLIO). Scans: (9A) T1 SE 300/16, FOV 8 cm, 256×256, 1.9 thk/0.2 spc; (9B) T1 SE [Omniscan], and (9C) T2 3D GR 38/20/5°, FOV 10 cm, 256×256, 0.5 thk/0.0 spc. [Tf-SPDP-CLIO.

[7] = tested on: 9L3.9 cells; test: In vitro MR imaging of 9L3.9 cell pellets incubated with reporter complexes (FIG. 7); format: cell-based, rat; conditions: spin echo MR imaging
Protocol: Concentration labels in FIG. 7 refer to the amount of iron (reporter complex) added to the sample.
Incubations of the reporter complexes with the cells were carried out at 37° C. The cells were washed and pelleted, and pellets were imaged in microfuge test tubes at room temperature as follows: SE (Spin Echo): TR 3000 ms, multi-echo with TE 25, 50, 75, 100 ms. Slice thickness was 1.9 mm, field of view 8 cm, matrix 256×256, 2 NEX, scan time 26:12 minutes. As shown at the top row in the figure, the Tf-SPDP-CLIO contrast agent provided a change in measured signal at far lower concentrations of the reporter complex.

For O=P1(N(CCCl)CCCl)NCCCO1 (stereo not drawn) [CPA, cyclophosphamide], the “cells alive, percent of control, no amplicon” value ([1]; 10^3 μM CPA, 72 hours) was “about 80%”, the “cells alive, percent of control, EZ-TFR amplicon” value ([1]; 10^3 μM CPA, 72 hours, MOI=5) was “about 80%” and the “cells alive, percent of control, PETZ amplicon” value ([1]; 10^3 μM CPA, 72 hours, MOI=5) was “less than 10%”. For the same compound, the “CPA concentration from which cell killing is significantly increased” value ([1]; PETZ and EZ-p450 amplicons) was 10^1 μM.

In the case of “Tf-MION: human holo-transferrin covalently conjugated to dextran coated monocrystalline iron oxide nanoparticles by the periodate method”, the “mean accumulation in ETR+ tumors” value ([2]; 24 hours after IV administration) is reported as 3.2 % ID/g, the “mean accumulation in ETR− tumors” value ([2]; 24 hours after IV administration, same animal) is reported as 0.8 % ID/g and the “persistence of MR signal intensity differences of tumors” value [3] is reported as “approximately 7 days”. For the same compound, the “change of MR signal of cell pellet due to TfR expression after PETZ infection” value [4] was “dramatically altered the MR signal”.

In the case of “Tf-SPDP-CLIO: holo-Tf conjugated to CLIO using the crosslinking agent N-succinimidyl 3-(2-pyridyldithio) propionate (SPDP)”, the “change in MRI following infection with amplicons expressing the altered transferrin receptor” value [5] is reported as “dramatic change in MRI at lower concentrations of iron” and the “appearance of PETZ-infected tumor in MR image” value [6] is reported as “dark mass”.

“In labeled Tf: transferrin labeled with In (radioisotope) [reference compound]” was tested, and the “difference in tumor accumulation, ETR+ vs ETR− tumors” value ([2]; ETR+ vs ETR− tumors) was about 4 fold.

“Tf-CLIO: holo-Tf conjugated to cross-linked iron oxide nanoparticles (CLIO) using the periodate method” was tested, and the “contrast compared with the other reporter complexes” value [7] was “better than the Tf-MION, but not as good as the Tf-SPDP-CLIO”.
